Experimental data published in PMC7017153, “Assembly of a G-Quadruplex Repair Complex by the FANCJ DNA Helicase and the REV1 Polymerase” (Genes, 2019).

Legend:
(TTAGGG)4 8oxo5 = assay: Fluorescence spectroscopy, FANCJ AKKQ binding to (TTAGGG)4 8oxo5; parameters: species or system human; settings: tryptophan fluorescence quenching, peptide 5 µM, excitation 280 nm; Buffer H (pH 7.5, 150 mM KCl), 25 °C; 1:1 model; 8oxoG at fifth guanine; average and 95% confidence interval, n = 3
Description: (§1) Equilibrium binding experiments were performed on a Cary Eclipse Fluorescence Spectrophotometer (Agilent Technologies, Santa Clara, CA, USA). Samples were maintained at 25 °C with a PCB 1500 water peltier system (Agilent). FANCJ peptide (5 µM) was placed in a microcuvette. Fluorescence spectra were collected from 300 nm to 450 nm (λexcitation = 280 nm) with slit widths set to 5 nm. A scan of Buffer H was used as a baseline. DNA substrate was titrated into the cuvette, and each mixture was equilibrated for 3 min prior to data collection. The extent of fluorescence quenching observed (ΔFobs) was calculated using the following equation, where F0 was the total fluorescence signal from the FANCJ peptide alone, and Fi was the total fluorescence intensity upon the ith addition of DNA:(1) ΔFobs=F0−Fi/F0
(§2) Binding isotherms were generated by plotting ΔFobs versus the total DNA concentration after correcting for sample dilution. The resulting curves were fit to a 1:1 interaction model using Scientist 3.0 software (Micromath, St. Louis, MO, USA) based on the following formulas, where A was the amplitude of fluorescence quenching and K was the equilibrium association constant. […] Fluorescence titrations were performed in triplicate. The reported values were determined from the average and 95% confidence interval of the three independent data-sets. […]

(GGGT)4 = assay: Fluorescence spectroscopy, FANCJ AKKQ binding to (GGGT)4; settings: tryptophan fluorescence quenching, peptide 5 µM, excitation 280 nm; Buffer H (pH 7.5, 150 mM KCl), 25 °C; 1:1 model; average and 95% confidence interval, n = 3
Description: as §1, §2

(GGGT)4 8oxo5 = assay: Fluorescence spectroscopy, FANCJ AKKQ binding to (GGGT)4 8oxo5; settings: tryptophan fluorescence quenching, peptide 5 µM, excitation 280 nm; Buffer H (pH 7.5, 150 mM KCl), 25 °C; 1:1 model; 8oxoG at fifth guanine; average and 95% confidence interval, n = 3
Description: as §1, §2

bioPEG12-(TTAGGG)4 = assay: Biolayer interferometry (BLI), AKKQ binding to bioPEG12-(TTAGGG)4; parameters: species or system human
Description: (§3) BLI assays were performed on a BLItz instrument (Pall Fortébio, Fremont, CA, USA). Streptavidin-coated biosensors were purchased from Pall Fortébio (Lot 1906281). Biosensors were hydrated in Buffer H for 10 min, and the baseline optical interference was recorded. A total of 150 nM of biotinylated G4 DNA or FANCJ PIP peptide was loaded onto the sensors over 2 min, after which they were washed with Buffer H. Binding reactions were initiated by placing the biosensors in analyte solutions at the indicated concentrations. After their interactions had reached an equilibrium, the sensors were returned to buffer to monitor dissociation of the complexes. Experiments were repeated in triplicate. BLI binding isotherms were generated by plotting the plateau values of the association phase versus total analyte concentration. These curves were fit to a 1:1 interaction model, as described above. The parameters reported were obtained from the average and 95% confidence interval of the three data sets.
(§4) We next validated our fluorescence spectroscopy results by biolayer interferometry (BLI). This technique measures the optical thickness of a biosensor surface, which can be used to examine the association and dissociation reactions of macromolecules. […] The optical interference pattern of the sensor alone was measured in Buffer H as an initial baseline (phase 1). […]

bioPEG12-(TTAGGG)4-8oxo1 = assay: Biolayer interferometry (BLI), AKKQ binding to bioPEG12-(TTAGGG)4-8oxo1; parameters: species or system human; settings: 150 nM biotinylated G4 DNA loaded on streptavidin biosensor, peptide 32-0.5 µM, Buffer H (pH 7.5, 150 mM KCl), 25 °C, plateau Δλ, 1:1 model, average and 95% confidence interval, n = 3
Description: as §3, §4

(GGGT)4 8oxo1 = assay: Fluorescence spectroscopy, FANCJ AKKQ binding to (GGGT)4 8oxo1
Description: as §1, §2

[1] = tested on: (TTAGGG)4 human telomeric G4 DNA; assay: Fluorescence spectroscopy, FANCJ AKKQ binding to (TTAGGG)4; settings: tryptophan fluorescence quenching, peptide 5 µM, excitation 280 nm, 300-450 nm; Buffer H (20 mM HEPES pH 7.5, 150 mM KCl, 5 mM TCEP, 5% (v/v) glycerol), 25 °C; 1:1 model; average and 95% confidence interval, n = 3
Description: as §1, §2

bioPEG12-(TTAGGG)4-8oxo5 = assay: Biolayer interferometry (BLI), AKKQ binding to bioPEG12-(TTAGGG)4-8oxo5; parameters: species or system human; settings: 150 nM biotinylated G4 DNA loaded on streptavidin biosensor, peptide 32-0.5 µM, Buffer H (pH 7.5, 150 mM KCl), 25 °C, plateau Δλ, 1:1 model, average and 95% confidence interval, n = 3
Description: as §3, §4

(TTAGGG)4 8oxo1 = assay: Fluorescence spectroscopy, FANCJ AKKQ binding to (TTAGGG)4 8oxo1; parameters: species or system human; settings: tryptophan fluorescence quenching, peptide 5 µM, excitation 280 nm; Buffer H (pH 7.5, 150 mM KCl), 25 °C; 1:1 model; 8oxoG at first guanine; average and 95% confidence interval, n = 3
Description: as §1, §2

**Q.** What does the source list for SPEKTTLAAKLSAKKQASIW [FANCJ AKKQ]?
**A.** K8oxo5 (equilibrium association constant) ((TTAGGG)4 8oxo5): 1.4 ± 0.5 × 10^6 M^−1; K (equilibrium association constant) ((GGGT)4): 2.7 ± 0.4 × 10^5 M^−1; K8oxo5 (equilibrium association constant) ((GGGT)4 8oxo5): 4.4 ± 0.6 × 10^5 M^−1; K (equilibrium constant) (bioPEG12-(TTAGGG)4; BLI, 150 nM biotinylated G4 DNA loaded on streptavidin biosensor, peptide 64-0.5 µM, Buffer H (pH 7.5, 150 mM KCl), 25 °C, plateau Δλ, 1:1 model, average and 95% confidence interval, n = 3): 9.4 ± 1.1 × 10^4 M^−1; BLI binding constants compared to the fluorescence measurements (bioPEG12-(TTAGGG)4; human telomeric G4, native, 8oxo1 and 8oxo5): about one order of magnitude weaker compared to the fluorescence measurements; K8oxo1 (equilibrium constant) (bioPEG12-(TTAGGG)4-8oxo1): 2.3 ± 0.8 × 10^5 M^−1; Increase of equilibrium constant by oxidative damage ((GGGT)4 8oxo1; (GGGT)4 8oxo1 and 8oxo5 relative to (GGGT)4, fluorescence): 1.5-3 fold; K8oxo1 (equilibrium association constant) ((GGGT)4 8oxo1; tryptophan fluorescence quenching, peptide 5 µM, excitation 280 nm, Buffer H (pH 7.5, 150 mM KCl), 25 °C, 1:1 model, 8oxoG at first guanine, average and 95% confidence interval, n = 3): 7.7 ± 0.7 × 10^5 M^−1; K (equilibrium association constant) [1]: 1.6 ± 0.7 × 10^6 M^−1; K8oxo5 (equilibrium constant) (bioPEG12-(TTAGGG)4-8oxo5): 1.8 ± 0.2 × 10^5 M^−1; K8oxo1 (equilibrium association constant) ((TTAGGG)4 8oxo1): 1.3 ± 0.4 × 10^6 M^−1
